Data: PubChem BioAssay (NCI)
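In this assay, cells in 96-well plates receive the compound at five concentrations for 48 hours. Endpoints are linearly interpolated between the surrounding concentrations. GI50 marks 50% less growth. TGI denotes the concentration required for complete inhibition of growth.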

What was measured:
Experiment in all cases: inhibition of tumour cell growth, NCI panel, 48 h
[1] = system: HCT-15 colon
[2] = system: LOX IMVI melanoma
[3] = system: OVCAR-3 ovarian
[4] = system: OVCAR-4 ovarian
[5] = system: SK-MEL-28 melanoma
[6] = system: SK-OV-3 ovarian
[7] = system: SNB-19 CNS
[8] = system: U251 CNS
[9] = system: UACC-62 melanoma

SMILES	TGI [1] [µM]	TGI [2] [µM]	TGI [3] [µM]	TGI [4] [µM]	TGI [5] [µM]	TGI [6] [µM]	TGI [7] [µM]	TGI [8] [µM]	TGI [9] [µM]	GI50 [1] [µM]	GI50 [2] [µM]	GI50 [3] [µM]	GI50 [4] [µM]	GI50 [5] [µM]	GI50 [6] [µM]	GI50 [7] [µM]	GI50 [8] [µM]	GI50 [9] [µM]
CN(C)CCSCCO	> 100	> 100	> 100	> 100	> 100	> 100	> 100	> 100	> 100	–	–	–	–	–	–	–	–	–
CC(NC(=O)C(=O)N/N=C1\C[C@@H](c2ccccc2)Nc2ccccc21)c1ccccc1 (stereo partly drawn)	–	> 100	> 100	> 100	> 100	–	> 100	> 100	–	–	–	–	–	–	–	–	–	–
CNC1=C(C(=O)OC)SC(c2ccccc2)(c2ccccc2)SC1	> 100	> 100	> 100	82.6	> 100	> 100	> 100	> 100	> 100	9.36	21.2	> 100	8.58	26.6	71.1	52.8	34.8	9.51
CCCCCCCCCCCCCCCCCCOc1ccccc1CC(=O)NCC[N+](C)(C)C	57.4	–	50.5	30	45.4	35.7	–	–	62.5	17	–	3.55	3.11	10.4	15.4	–	–	6.55
N#Cc1nc2c(S(=O)(=O)c3ccccc3)c(N)n(Cc3ccc(Cl)cc3)c2nc1C#N	> 50	4.17	> 50	> 50	> 50	29.3	41	18.3	18.1	24.2	0.932	12	17.8	15.3	9.9	13.8	8.09	7.51
O=S(=O)(NC1=NCCN1C(=S)SN1CCn2c1nsc2=S)c1ccccc1Cl	53	62.9	17.7	> 100	65.7	> 100	> 100	46	44.1	18.7	16.5	3.89	15.6	16.1	57	41	21.4	19.3
CCCCn1c2ccccc2c2ccc3c(c21)C(=O)C=CC3=O	> 100	> 100	> 100	> 100	> 100	> 100	> 100	> 100	> 100	–	–	–	–	–	–	–	–	–
COc1c(Cl)ccc2c(-c3nc4cc(Cl)c(F)cc4s3)cc(=O)oc12	51	–	22	70.6	> 78	19.9	> 72.3	44.7	53.7	11.7	–	3.94	12.9	26.5	7.03	> 43.4	7.57	16.5
Fc1ccc2c(c1)C1=C(CO2)C(c2ccc(Cl)cc2)NC(=S)N1 (stereo not drawn)	> 100	61.7	49.5	> 100	–	> 100	> 100	63.1	63.7	92.6	23	14.7	51.9	–	68.8	44.1	18.7	18.4
CCOC(=O)c1ccc(N2C(=O)Cc3ccccc3C2=O)cc1	> 100	–	> 100	–	> 100	> 100	> 100	> 100	> 100	–	–	–	–	–	–	–	–	–
CSc1ccc(SC2c3ccc(C)cc3Oc3nc(N)c(C#N)c(N)c32)cc1 (stereo not drawn)	3.18	2.92	3.13	3.01	3.29	3.29	3.16	3.05	2.97	1.65	1.51	1.74	1.59	1.83	1.83	1.77	1.69	1.61
CCN(CC)CCn1c2ccc(OC)cc2c2sc3cc(OC)ccc3c(=O)c21	2.66	2.74	4.54	4.88	3.12	10.3	10	3.63	3.47	0.861	1.3	2.12	1.84	1.7	3.07	2.43	1.55	1.8
OCC(CCc1c[nH]c2ccccc12)c1c[nH]c2ccccc12 (stereo not drawn)	32.2	27.3	> 100	42.9	36.6	98.5	30.5	30.4	27	–	–	–	–	–	–	–	–	–
O=C1C(=O)N(c2nccs2)C(=O)C(=O)C1c1nc2ccccc2s1	> 100	> 100	> 100	> 100	> 100	> 100	> 100	> 100	> 100	–	–	–	–	–	–	–	–	–
